Measurements from PubChem BioAssay (NCI).
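Method: 48-hour compound exposure of cells in 96-well plates, five concentrations, linear interpolation of endpoints. Here, GI50 denotes the concentration required for 50% inhibition of growth. Definition used: TGI = concentration required for complete inhibition of growth.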

What was measured:
Assay in all cases: NCI-60 cell line screen, 48 h
OVCAR-5 ovarian = tested on: OVCAR-5 ovarian
SN12C renal = tested on: SN12C renal
SR leukemia = tested on: SR leukemia
HT29 colon = tested on: HT29 colon
NCI-H460 lung = tested on: NCI-H460 lung
HL-60(TB) leukemia = tested on: HL-60(TB) leukemia
MDA-MB-231 breast = tested on: MDA-MB-231 breast
SK-MEL-2 melanoma = tested on: SK-MEL-2 melanoma
M14 melanoma = tested on: M14 melanoma
SNB-19 CNS = tested on: SNB-19 CNS

Compound | GI50 (OVCAR-5 ovarian) [µM] | TGI (OVCAR-5 ovarian) [µM] | GI50 (SN12C renal) [µM] | TGI (SN12C renal) [µM] | GI50 (SR leukemia) [µM] | TGI (SR leukemia) [µM] | GI50 (HT29 colon) [µM] | TGI (HT29 colon) [µM] | GI50 (NCI-H460 lung) [µM] | TGI (NCI-H460 lung) [µM] | GI50 (HL-60(TB) leukemia) [µM] | TGI (HL-60(TB) leukemia) [µM] | GI50 (MDA-MB-231 breast) [µM] | TGI (MDA-MB-231 breast) [µM] | GI50 (SK-MEL-2 melanoma) [µM] | TGI (SK-MEL-2 melanoma) [µM] | TGI (M14 melanoma) [µM] | TGI (SNB-19 CNS) [µM] | GI50 (M14 melanoma) [µM] | GI50 (SNB-19 CNS) [µM]
COc1ccc(/C=C/C(=O)C(CC2CCC2)C(=O)/C=C/c2ccc(OC)c(OC)c2)cc1OC | 2.55 | 5.6 | 1.93 | 4.55 | 1.04 | > 100 | 1.78 | 4.34 | 2.01 | 4.14 | 1.69 | 5.94 | 3.77 | > 100 | 2.11 | 4.7 | – | – | – | –
COc1cc(/C=C/c2ccc(OC)c(OC)c2)cc(OC)c1 | – | > 100 | – | 96.6 | – | > 100 | – | 94.4 | – | 73.6 | – | – | – | 52 | – | > 100 | 67.9 | > 100 | – | –
CN(C)CCN1C(=O)c2ccc3c4c(ccc(c24)C1=O)C(=O)N(CCN=C=S)C3=O | 0.153 | 0.815 | 0.0364 | 0.177 | < 0.0172 | – | 0.0297 | 0.115 | – | – | – | – | 0.0942 | 0.352 | 0.0563 | 0.225 | 0.216 | 0.596 | 0.0735 | 0.0954
Nc1ccn(C2CCC(CO)O2)c(=O)n1 (configuration not stated) | > 1000 | > 1000 | > 1000 | > 1000 | – | > 1000 | > 1000 | > 1000 | – | – | – | > 1000 | – | > 1000 | > 1000 | > 1000 | > 1000 | > 1000 | – | > 1000
COc1cc(/C=C/c2cc(/C=C/c3ccc(O)c(OC)c3)n(C(=O)Nc3ccc(C)cc3C)n2)ccc1O | 1.51 | 6.85 | – | – | 0.0445 | – | 0.903 | 3.59 | – | – | 0.262 | 0.801 | 0.613 | 6.01 | – | – | – | – | – | –
COc1ccc(CCN2COc3c([C@@H](C)CCC=C(C)C)ccc(C)c3C2)cc1OC | 8.53 | 20.8 | 3.27 | 13.5 | – | – | 2.2 | 5.73 | 2.06 | 4.3 | 4.11 | 60.9 | 2.76 | 9.37 | 1.88 | 3.82 | 3.18 | 42.8 | 1.69 | 12.1
CCCCCCCCCCCCCCCCCCOc1ccccc1CC(=O)OCC[N+]1(C)CCCC1 | 2.02 | 5.31 | 1.94 | 4.27 | 2.47 | 6.92 | – | – | 2.15 | 4.65 | 2.1 | 5.07 | 1.7 | 3.55 | – | – | 5.46 | – | 2.28 | –
CCSc1nc(SCC)c2cn[nH]c2n1 | 69.1 | > 100 | 47.7 | > 100 | – | – | 62.9 | > 100 | 31.9 | > 100 | 72.4 | > 100 | 23.2 | > 100 | 61.5 | > 100 | > 100 | > 100 | > 100 | 46.8
Nc1ccc(-c2nc3ccc(Cc4ccc5nc(-c6ccc(N)cc6)[nH]c5c4)cc3[nH]2)cc1 | 12 | 30 | 8.75 | 29 | 1.48 | > 100 | 1.89 | 4.1 | 14.4 | 37.1 | 10.4 | 36.9 | 2.14 | 5.18 | 12.6 | 35.4 | – | 18.2 | – | 3.24
O=c1cc(NC2CCN(CCCc3ccccc3)CC2)c2cc(Cl)ccc2o1 | 10.8 | 24.6 | 13 | 28.2 | 6.81 | 28.3 | 4.6 | 19.5 | 15.7 | 29.6 | 20.5 | 49.3 | 9.42 | 22.9 | 18.4 | 33.1 | – | 29.8 | – | 13.4
O=c1c2ccccc2c(=O)c2c1[nH]c1c(-c3ccccc3)c(-c3ccccc3)c(=O)c12 | 4.27 | 14.7 | 3.57 | 16 | 2.15 | 13.5 | 4.29 | > 100 | 2.82 | 12 | – | – | 4.97 | 43 | 2.84 | 15.6 | 5.63 | 11.8 | 2.41 | 3.26
Cc1ccc(-c2nc3ccc(Cl)cc3c(=O)n2N2C(=O)CSC2c2ccccc2Cl)cc1 (configuration not stated) | > 100 | > 100 | 11.8 | > 100 | > 100 | > 100 | 60.2 | > 100 | 3.68 | > 100 | – | – | 4.21 | > 100 | – | – | > 100 | > 100 | 56.2 | 5
C1CCC([PH+](C2CCCCC2)C2CCCCC2[PH+](C2CCCCC2)C2CCCCC2)CC1.O=C(C1[CH-]CCCC1)C1CCCC[N-]1.[Au] (configuration not stated) | 0.343 | 1.53 | 0.262 | 2.81 | 0.329 | > 100 | – | – | – | – | 0.249 | 0.731 | 0.223 | 0.713 | 0.379 | 2.02 | 1.4 | – | 0.26 | –
ClCc1cccc(Cn2cnc3nc(Cl)nc(Cl)c32)c1 | 1.63 | 3.31 | – | – | 0.233 | 2.6 | – | – | 1.72 | 3.09 | 1.16 | 2.38 | 0.234 | 0.694 | 1.78 | 3.74 | 2.28 | 2.69 | 0.854 | 1.32
O=C1CC2c3ccccc3CCC2c2ccccc21 (configuration not stated) | – | > 100 | – | – | – | > 100 | – | 30.6 | – | 69.2 | – | > 100 | – | 80 | – | 35.9 | 33.4 | > 100 | – | –
